For experiment [1], the system named is UTI89. Kind of experiment: Mouse UTI model, bladder bacterial titers (CFU). The format is in vivo, E. coli (UPEC); host C3H/HeN mouse. The settings on record: 6 hours post-infection. The method, then:
For mannoside treatment, bacteria were incubated with 1 mM ZFH56 prior to inoculation. Every 24 h for 3 days, mice were transurethrally inoculated with 1 mM ZFH56. For antibiotic treatment, mice were inoculated with UTI89 and immediately given antibiotics in the drinking water for 3 days. Antibiotics used were trimethoprim-sulfamethoxazole (SXT) at […], respectively. For dual treatment, bacteria were incubated with 1 mM ZFH56 prior to inoculation. Every 24 h for 3 days, mice were transurethrally inoculated with 1 mM ZFH56. Additionally, mice were immediately given antibiotics in the drinking water for 3 days as in the antibiotic only treatment. Urine was collected every day for 13 days. At 2 weeks, mice were sacrificed and bladders were titered.
UTI89 biofilm was grown in LB+/− mannoside for 24 h at 22° C. in PVC plates and quantitated using crystal violet. UTI89 biofilm for confocal microscopy was grown in LB for 24 h at 22° C. on PVC coverslips. Mannoside was then added and biofilm was grown for an additional 16 h. Coverslips were then washed in PBS, fixed in 2% paraformaldehyde and stained with SYTO9 prior to confocal microscopy. For all animal experiments UTI89 or PBC-1 was grown 2×24 h statically in LB at 37° C. and inoculated at a dose of 1×10^7 bacteria in 50 μl. All mice used were female C3H/HeN (Jackson). For the pretreatment studies, bacteria were incubated with mannoside for 20 min prior to inoculation into the mouse. […] For CFU counts, bladders were harvested at 6 hpi and placed in 1 mL PBS. Bladders were then homogenized, diluted and plated on LB. After growth at 37° C. overnight, bacterial counts were determined. LacZ staining and gentamicin protection assays were performed at 6 hpi. […] Water was changed daily with fresh antibiotics. Standard growth curve assays and hemagglutination assays were performed with TMP-SMZ. All statistical analysis performed was a two-tailed Mann-Whitney U test.
Animal infections. Bacteria were grown under type 1 pili-inducing conditions (2×24 h at 37° C. statically in LB). The bacteria were harvested and resuspended to an OD600 of 0.5 in PBS. Eight-week-old C3H/HeN (Harlan) female mice were anesthetized by inhalation of isoflurane and infected via transurethral catheterization with 50 μl of the bacterial suspension, resulting in 1-2×10^7 inoculum. At 6 hpi, mice were sacrificed by cervical dislocation under anesthesia and the bladders were immediately harvested and processed as described below. All animal studies using mice were approved by the Animal Studies Committee of Washington University (Animal Protocol Number 20100002).
Bladder tissue bacterial titer determination. Mannoside ZFH-2056 was administered either IP (5 mg/kg) or orally (100 mg/kg) 30 min prior to inoculation with UTI89. […]

The test system of experiment [2] is UTI89. Kind of experiment: Ex vivo gentamicin protection assay of infected mouse bladders (luminal vs intracellular bacteria). The format is in vivo, E. coli (UPEC); host mouse. The settings on record: 1 hour post-infection, bacteria inoculated in presence of mannoside. The source says:
Based on the extensive elucidation of the UPEC pathogenic cascade, critical nodes in pathogenesis that mannosides would target and thereby have powerful and potent therapeutic ramifications were identified. The first step in the UPEC pathway involves FimH-mediated colonization of the bladder epithelium via the recognition of mannose receptors. Bacterial invasion into superficial bladder umbrella cells can then ensue. […] To test this, a well-established gentamicin protection assay that allows the determination of the luminally bound fraction versus the intracellular fraction was utilized (FIG. 10). […] This may be due to contamination from bacteria in the urine or bacteria that are non-specifically associated with the epithelium. In any case, blocking invasion blocks the ability of the bacteria to rapidly expand in numbers. This is due to the ability of the mannosides to block the IBC mechanism.
Gentamicin protection assay. To enumerate bacteria present in the intracellular versus extracellular compartments, bladders were aseptically harvested at 6 hpi. The bladders were then bisected twice and washed three times in 500 μl of PBS each. The wash fractions were pooled, lightly spun at 500 rpm for 5 min to pellet exfoliated bladder cells, serially diluted, and plated onto LB agar to obtain the luminal fraction. The bladders were treated with 100 μg of gentamicin/ml for 90 min at 37° C. After treatment, the bladders were washed twice with PBS to eliminate residual gentamicin, homogenized in 1 ml of PBS, serially diluted, and plated onto LB agar to enumberate the CFUs in the intracellular fraction.
To enumerate bacteria present in the intracellular versus extracellular compartments, bladders were aseptically harvested at 6 hpi. The bladders were then bisected twice and washed three times in 500 μl of PBS each. The wash fractions were pooled, lightly spun at 500 rpm for 5 min to pellet exfoliated bladder cells, serially diluted, and plated onto LB agar to obtain the luminal fraction. The bladders were treated with 100 μg of gentamicin/ml for 90 min at 37° C. […]

The target in experiment [3] is FimH (Escherichia coli, UniProt Q1R2J4).
The test system of experiment [4] is UTI89. Kind of experiment: Enumeration of bladder IBCs by LacZ staining in infected mice. Format: in vivo, E. coli (UPEC); host C3H/HeN mouse. The settings on record: 6 hours post-infection. As to the method: After invasion, UPEC are able to rapidly replicate to form IBCs, thus dramatically expanding in numbers. After maturation of the IBC, bacteria are able to disperse from the biomass and spread to neighboring cells to expand the buildup in bacterial numbers via next generation IBC. The ability of mannosides to block IBC formation was evaluated based on LacZ staining of whole mount bladders, a protocol developed to enumerate IBCs. Whole bladder titers were also determined by quantifying colony forming units (CFUs) at 6 hours post-infection and later time points as test compounds were further developed.
Enumeration of bladder IBCs. For bacterial pretreatment experiments, mannoside was added to the bacterial suspension and incubated for 20 min. For animal pretreatment experiments, mannoside ZFH-2056 was administered either IP (5 mg/kg) or orally (100 mg/kg) 30 min prior to inoculation with UTI89. To accurately count the number of IBCs, mice were sacrificed 6 hpi and bladders were aseptically removed, bisected, splayed on silicone plates and fixed in 2% paraformaldehyde (v/v). IBCs, readily discernable as punctate violet spots, were quantified by LacZ staining of whole bladders.
For animal pretreatment experiments, mannoside ZFH-2056 was administered either IP (5 mg/kg) or orally (100 mg/kg) 30 min prior to inoculation with UTI89. To accurately count the number of IBCs, mice were sacrificed 6 hpi and bladders were aseptically removed, bisected, splayed on silicone plates and fixed in 2% paraformaldehyde (v/v). IBCs, readily discernable as punctate violet spots, were quantified by LacZ staining of whole bladders.

The target in experiment [5] is T1, FimH (Escherichia coli, UniProt P08191). Kind of experiment: biochemical. Format: binding, E. coli. The settings on record: FP assay potency.
Experiment [6] has as its target T1, FimH. As to conditions: previously reported, SPR, cited from earlier work.
For experiment [7], the system named is UTI89. Kind of experiment: Growth curve / MIC determination in LB. Format: cell-based, E. coli (UPEC). As to conditions: Escherichia coli. The method, then:
(§1) Mannoside 6 was added at 100 μM. Growth curves were performed in a 96-well plate at 37° C. with A600 readings taken every 30 min for 8 h. Minimum inhibitory concentration (MIC) was calculated as the lowest concentration of antibiotic that prevented growth of the bacterial strain.

In a further experiment the test system is PBC-1. Nature of the experiment: Growth curve / MIC determination in LB. The format is cell-based, E. coli (UPEC). The settings on record: PBC-1. The method, then: Growth curve. […] Mannoside ZFH-2056 was added at 100 μM. Growth curves were performed in a 96-well plate at 37° C. with A600 readings taken every 30 min for 8 h.
as §1

For experiment [8], the system named is UTI89 biofilm. Kind of experiment: UTI89 type 1 dependent biofilm formation (inhibition/prevention) assay on PVC, crystal violet. The format is cell-based, uropathogenic E. coli UTI89. The settings on record: 1 mM. The method, boiled down:
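Prevention: UTI89 grown in LB in PVC wells at 23° C with mannoside at varying concentrations for 48 h, then crystal violet stained and quantified. Disruption: 24 h UTI89 biofilm, mannoside added, grown 16 h more, then crystal violet.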

Experiment [9] concerns UTI89 biofilm. Nature of the experiment: Biofilm in human urine under flow on silicone tubing (crystal violet, CFU). As to conditions: 1% in human urine, 24 h. The format is cell-based, uropathogenic E. coli UTI89. The method, then: Biofilms were grown as described by Ferrieres et al. (2007; FEMS Immun. Med. Micro 51:212) on All Silicone Foley catheters (Bard Medical, GA) or silicone tubing (Thermo Fisher Scientific Inc., PA) and modified as follows. All tubing and connectors in the system were autoclaved and ethanol sterilized prior to use. The system was assembled similar to the previously described flow-chamber system. Priming of the catheter or the silicone tubing occurred at 37° C. for 20 min by flowing pre-warmed pooled human urine. Urine was collected from healthy volunteers as approved by the Institutional Review Board of Washington University in St. Louis. Pooled samples were spun at 10000×g for 15 min, filtered through […], and, if necessary, stored at 4° C. for no more than 3 days. Three milliliters of stationary-phase E. coli from overnight cultures were diluted to 1−2×10^6 CFU/ml in human urine and injected into the catheter or silicone tubing using a 30 cc gauge needle. The bacteria were allowed to attach to the substratum for 1 h before urine flow via Watson-Marlow peristaltic pump 205S was resumed at 0.5 ml min^−1. […] Viable bacterial counts were assessed by serial dilution on LB plate with appropriate antibiotics. […] The bound crystal violet was then dissolved in 200 μl of 33% acetic acid and absorbance measured at 595 nm. The amount of biofilm was expressed as CFU/ml per cm^2 and A595/cm^2. […]

[10] abbreviates: UTI89 inoculated in presence of pilicide.

In brackets after ≈: the same amount, converted by molar mass. Entries after “also recorded” stand apart in the source; their conditions may differ. Like-named read-outs stand apart in the source and are kept apart here.

What is called EC50 is the concentration giving half of the maximal effect. The term Kd denotes a measure of binding affinity in units of concentration.
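Wherever HAI Titer EC>90 is given: hemagglutination inhibition of guinea pig erythrocytes agglutinated by type 1 piliated uropathogenic E. coli via FimH mannose binding, quantified through serial dilutions of compound.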

Consider `NC(=O)c1cccc(OC2OC(CO)C(O)C(O)C2O)c1` (stereo not drawn) [Compound 2ZFH98, 3-[3,4,5-trihydroxy-6-(hydroxymethyl)tetrahydropyran-2-yl]oxybenzamide], for which the “bladder CFUs / colonization” value in the experiment on UTI89 [1] (1 mM mannoside treated bacteria) is given as “significantly reduced colonization”. Besides, the intracellular bacteria entry in the experiment with UTI89 [2] is “significant decrease”. In addition, at FimH [3], the “HAI Titer EC>90” value worked out at 16.000 µM. Also, the IBCs entry with UTI89 [4] (0.1 mM mannoside) and in the experiment on UTI89 [4] (1 mM mannoside) was “significantly reduced IBCs” throughout.
For the compound `O=C(O)[C@@H]1CSc2c(-c3cccc(C(F)(F)F)c3)c(Cc3cccc4ccccc34)cc(=O)n21` [FN075, reference compound], in the experiment on UTI89 [1] (setting [10]), the “bacterial load within the bladder” value is reported as “significant attenuation of virulence; also recorded: significantly reduced bacterial load”. Further, the “IBCs in the bladder” value in the experiment with UTI89 [4] (setting [10]) is “significant attenuation of virulence; also recorded: significantly less IBCs”.
Take `CCCCCCCOC1OC(CO)C(O)C(O)C1O` (stereo not drawn) [Heptyl mannoside, reference compound]: the EC50 on FimH [5] was found to be 89 nM. Besides, the Kd on FimH [6] was 5 nM.
The compound `Cc1cc(NS(=O)(=O)c2ccc(N)cc2)no1` [SMZ, Sulfamethoxazole] yielded an MIC against UTI89 [7] of 0.25 µg/mL (≈ 0.987 µM).
As for `COc1cc(Cc2cnc(N)nc2N)cc(OC)c1OC` [TMP, Trimethoprim], the MIC was 0.05 µg/mL (≈ 0.172 µM) in the experiment with UTI89 [7]; 256 µg/mL (≈ 882 µM) in the experiment on PBC-1 (Escherichia coli, read-out: Minimum Inhibition Concentration (MIC)); 0.000256 µg/mL (≈ 0.000882 µM) against PBC-1.
As to `CCCCO[C@H]1O[C@H](CO)[C@@H](O)[C@H](O)[C@@H]1O` [butylmannoside, α-D-butylmannoside], the Kd on FimH [6] (read-out: KD) was 151 nM.
For `CCCCCCCO[C@H]1O[C@H](CO)[C@@H](O)[C@H](O)[C@@H]1O` [heptyl mannose], the “inhibition of UPEC biofilm formation in vitro” value in the experiment on UTI89 biofilm [8] is “inhibited UPEC biofilm formation”. The “virulence / bladder bacterial load” value in the experiment on UTI89 [1] (UTI89 incubated with 5 mM compound before inoculation) is recorded as “significant attenuation of virulence; also recorded: reduction of bacterial load in the bladder”.
Consider `COC1O[C@H](CO)[C@@H](O)[C@H](O)[C@@H]1O` (stereo partly drawn) [methyl mannose], for which, in the experiment with UTI89 biofilm [9], the “biofilm biomass (crystal violet)” value was “significantly reduced biomass; also recorded: prevents UPEC biofilm formation” and the “biofilm-adherent cells (CFU)” value was “significantly reduced”.
